Laboratory results from ChEMBL document CHEMBL3822420, “New peptide deformylase inhibitors design, synthesis and pharmacokinetic assessment” (Bioorg Med Chem Lett, 2016).
Converted amounts (≈) assume the structure as drawn.

How the values were obtained:
[1] = test system: Staphylococcus epidermidis; experiment: Antibacterial activity against methicillin-resistant Staphylococcus epidermidis 14-2; type: functional
[2] = test system: Staphylococcus aureus; experiment: Antibacterial activity against methicillin-resistant Staphylococcus aureus 14-5; type: functional
[3] = test system: Escherichia coli; experiment: Antibacterial activity against Escherichia coli 14-2; type: functional
[4] = test system: Staphylococcus aureus; experiment: Antibacterial activity against methicillin-sensitive Staphylococcus aureus 14-3; type: functional
[5] = test system: Staphylococcus epidermidis; experiment: Antibacterial activity against methicillin-resistant Staphylococcus epidermidis 14-4; type: functional
[6] = test system: Staphylococcus epidermidis; experiment: Antibacterial activity against methicillin-sensitive Staphylococcus epidermidis 14-3; type: functional
[7] = test system: Enterococcus faecalis; experiment: Antibacterial activity against Enterococcus faecalis 14-2; type: functional
[8] = test system: Staphylococcus epidermidis; experiment: Antibacterial activity against methicillin-resistant Staphylococcus epidermidis 14-1; type: functional
[9] = test system: Staphylococcus aureus; experiment: Antibacterial activity against methicillin-sensitive Staphylococcus aureus 14-2; type: functional
[10] = test system: Escherichia coli; experiment: Antibacterial activity against Escherichia coli 14-1; type: functional
[11] = test system: Escherichia coli; experiment: Antibacterial activity against Escherichia coli 14-1 expressing extended-spectrum beta-lactamase; type: functional
[12] = test system: Enterococcus faecalis; experiment: Antibacterial activity against Enterococcus faecalis 14-5; type: functional
[13] = test system: Escherichia coli; experiment: Antibacterial activity against Escherichia coli 14-2 expressing extended-spectrum beta-lactamase; type: functional
[14] = test system: Staphylococcus epidermidis; experiment: Antibacterial activity against methicillin-sensitive Staphylococcus epidermidis 14-2; type: functional
[15] = test system: Enterococcus faecalis; experiment: Antibacterial activity against Enterococcus faecalis 14-3; type: functional
[16] = test system: Staphylococcus aureus; experiment: Antibacterial activity against methicillin-sensitive Staphylococcus aureus 14-1; type: functional
[17] = test system: Staphylococcus epidermidis; experiment: Antibacterial activity against methicillin-resistant Staphylococcus epidermidis 14-3; type: functional
[18] = test system: Enterococcus faecalis; experiment: Antibacterial activity against Enterococcus faecalis 14-1; type: functional
[19] = test system: Staphylococcus aureus; experiment: Antibacterial activity against methicillin-resistant Staphylococcus aureus 14-1; type: functional
[20] = test system: Staphylococcus aureus; experiment: Antibacterial activity against methicillin-sensitive Staphylococcus aureus 14-4; type: functional
[21] = test system: Staphylococcus aureus; experiment: Antibacterial activity against methicillin-resistant Staphylococcus aureus 14-4; type: functional
[22] = test system: Staphylococcus epidermidis; experiment: Antibacterial activity against methicillin-sensitive Staphylococcus epidermidis 14-1; type: functional
[23] = test system: Staphylococcus aureus; experiment: Antibacterial activity against methicillin-resistant Staphylococcus aureus 14-2; type: functional
[24] = Oral bioavailability in Sprague-Dawley rat at 10 mg/kg; type: ADME, organism-based; settings: in vivo
[25] = AUC (0 to t) in Sprague-Dawley rat at 2 mg/kg, iv; type: ADME, organism-based; settings: Sprague-Dawley, in vivo
[26] = AUC (0 to t) in Sprague-Dawley rat at 10 mg/kg, po; type: ADME, organism-based; settings: in vivo
[27] = Tmax in Sprague-Dawley rat at 10 mg/kg, po; type: ADME, organism-based; settings: in vivo
[28] = Clearance in Sprague-Dawley rat at 10 mg/kg, po; type: ADME, organism-based; settings: Sprague-Dawley, in vivo
[29] = MRT (0 to t) in Sprague-Dawley rat at 10 mg/kg, po; type: ADME, organism-based; settings: in vivo
[30] = AUC (0 to infinity) in Sprague-Dawley rat at 2 mg/kg, iv; type: ADME, organism-based; parameters: dose 2 mg/kg, route intravenous, time infinity; settings: Sprague-Dawley, in vivo
[31] = Half life in Sprague-Dawley rat at 2 mg/kg, iv; type: ADME, organism-based; settings: in vivo
[32] = test system: Rattus norvegicus; experiment: Volume of distribution at steady state in Sprague-Dawley rat at 10 mg/kg, po; type: ADME, organism-based; settings: in vivo
[33] = AUC (0 to infinity) in Sprague-Dawley rat at 10 mg/kg, po; type: ADME, organism-based; parameters: dose 10 mg/kg, time infinity, route oral; settings: Sprague-Dawley, in vivo
[34] = Volume of distribution at steady state in Sprague-Dawley rat at 2 mg/kg, iv; type: ADME, organism-based; settings: in vivo, read-out: Vdss
[35] = MRT (0 to t) in Sprague-Dawley rat at 2 mg/kg, iv; type: ADME, organism-based; settings: in vivo
[36] = Cmax in Sprague-Dawley rat at 2 mg/kg, iv; type: ADME, organism-based; parameters: dose 2 mg/kg, route intravenous; settings: in vivo
[37] = Cmax in Sprague-Dawley rat at 10 mg/kg, po; type: ADME, organism-based; parameters: dose 10 mg/kg, route oral; settings: in vivo
[38] = Clearance in Sprague-Dawley rat at 2 mg/kg, iv; type: ADME, organism-based; settings: in vivo
[39] = Tmax in Sprague-Dawley rat at 2 mg/kg, iv; type: ADME, organism-based; settings: in vivo
[40] = Half life in Sprague-Dawley rat at 10 mg/kg, po; type: ADME, organism-based; settings: Sprague-Dawley, in vivo

Compound | MIC [1] [µg/mL] | MIC [2] [µg/mL] | MIC [3] [µg/mL] | MIC [4] [µg/mL] | MIC [5] [µg/mL] | MIC [6] [µg/mL] | MIC [7] [µg/mL] | MIC [8] [µg/mL] | MIC [9] [µg/mL] | MIC [10] [µg/mL] | MIC [11] [µg/mL] | MIC [12] [µg/mL] | MIC [13] [µg/mL] | MIC [14] [µg/mL] | MIC [15] [µg/mL] | MIC [16] [µg/mL] | MIC [17] [µg/mL] | MIC [18] [µg/mL] | MIC [19] [µg/mL] | MIC [20] [µg/mL] | other results
Cc1nc(NNC(=O)[C@H](CC2CCCC2)CN(O)C=O)c(F)c(N2CCN3CCOC[C@@H]3C2)n1 [LANOPEPDEN] | 0.06 (≈ 0.125 µM) | 0.25 (≈ 0.521 µM) | 64 (≈ 133 µM) | 1 (≈ 2.09 µM) | 0.25 (≈ 0.521 µM) | 0.06 (≈ 0.125 µM) | 16 (≈ 33.4 µM) | 0.125 (≈ 0.261 µM) | 1 (≈ 2.09 µM) | 64 (≈ 133 µM) | 1 (≈ 2.09 µM) | > 64 | > 64 | 0.25 (≈ 0.521 µM) | 16 (≈ 33.4 µM) | 1 (≈ 2.09 µM) | 0.015 (≈ 0.0313 µM) | 8 (≈ 16.7 µM) | 2 (≈ 4.17 µM) | 1 (≈ 2.09 µM) | MIC [21]: 2 µg/mL (≈ 4.17 µM); MIC [22]: 0.125 µg/mL (≈ 0.261 µM); MIC [23]: 1 µg/mL (≈ 2.09 µM)
CCCC[C@H](CN(O)C=O)C(=O)N1CC2(CC2)C[C@H]1c1nc2ccccc2[nH]1 | 1 (≈ 2.6 µM) | 0.5 (≈ 1.3 µM) | 32 (≈ 83.2 µM) | 2 (≈ 5.2 µM) | 1 (≈ 2.6 µM) | 0.5 (≈ 1.3 µM) | 8 (≈ 20.8 µM) | 1 (≈ 2.6 µM) | 2 (≈ 5.2 µM) | 32 (≈ 83.2 µM) | 0.5 (≈ 1.3 µM) | 64 (≈ 166 µM) | 32 (≈ 83.2 µM) | 2 (≈ 5.2 µM) | 8 (≈ 20.8 µM) | 2 (≈ 5.2 µM) | 0.5 (≈ 1.3 µM) | 8 (≈ 20.8 µM) | 1 (≈ 2.6 µM) | 2 (≈ 5.2 µM) | bioavailability [24]: 37%; AUC(0-t) [25]: 1260 ng·h/mL; AUC(0-t) [26]: 2340 ng·h/mL; Tmax [27]: 0.25 h; CL/F [28]: 70.9 mL/min/kg; MRT last [29]: 4.13 h; AUC(0-inf) [30]: 1270 ng·h/mL; half-life [31]: 5.23 h; Vdss [32]: 27.4 L/kg; AUC(0-inf) [33]: 2380 ng·h/mL; Vd [34]: 3 L/kg; MRT last [35]: 1.91 h; Cmax [36]: 1740 ng/mL; MIC [21]: 2 µg/mL (≈ 5.2 µM); Cmax [37]: 1680 ng/mL; MIC [22]: 0.5 µg/mL (≈ 1.3 µM); clearance [38]: 26.4 mL/min/kg; Tmax [39]: 4.8 min; half-life [40]: 4.46 h; MIC [23]: 2 µg/mL (≈ 5.2 µM)
CCCC[C@H](CN(O)C=O)C(=O)N1CC2(CC2)C[C@H]1c1nc(-c2cccnc2)no1 | 0.25 (≈ 0.605 µM) | 0.5 (≈ 1.21 µM) | 64 (≈ 155 µM) | 0.5 (≈ 1.21 µM) | 0.5 (≈ 1.21 µM) | 0.125 (≈ 0.302 µM) | 2 (≈ 4.84 µM) | 0.25 (≈ 0.605 µM) | 0.5 (≈ 1.21 µM) | 64 (≈ 155 µM) | 1 (≈ 2.42 µM) | 2 (≈ 4.84 µM) | 32 (≈ 77.4 µM) | 0.5 (≈ 1.21 µM) | 2 (≈ 4.84 µM) | 0.5 (≈ 1.21 µM) | 0.125 (≈ 0.302 µM) | 2 (≈ 4.84 µM) | 0.5 (≈ 1.21 µM) | 0.5 (≈ 1.21 µM) | bioavailability [24]: 40%; AUC(0-t) [25]: 654 ng·h/mL; AUC(0-t) [26]: 1280 ng·h/mL; Tmax [27]: 0.25 h; CL/F [28]: 136 mL/min/kg; MRT last [29]: 1.68 h; AUC(0-inf) [30]: 657 ng·h/mL; half-life [31]: 1.11 h; Vdss [32]: 15.1 L/kg; AUC(0-inf) [33]: 1300 ng·h/mL; Vd [34]: 1.9 L/kg; MRT last [35]: 0.61 h; Cmax [36]: 929 ng/mL; MIC [21]: 0.5 µg/mL (≈ 1.21 µM); Cmax [37]: 893 ng/mL; MIC [22]: 0.125 µg/mL (≈ 0.302 µM); clearance [38]: 51.2 mL/min/kg; Tmax [39]: 4.8 min; half-life [40]: 1.28 h; MIC [23]: 0.5 µg/mL (≈ 1.21 µM)
